We go through twelve compounds from patent US20230416196A1, “DIMER OF BIGUANIDINES AND THEIR THERAPEUTIC USES” (INSTITUT CURIE, priority 2020, published 2023).

SMILES strings stand for the structures. Where a name gives a salt, the structure may show the parent alone.

The subject of one assay is macrophage activation. Briefly: Macrophage activation, copper(I)-targeting agents. The class given is cell-based.
Another assay relates to U937 cells. The experiment in a line: Cell viability assay (CellTiter-Blue) on lymphoma cell line U937. The class given is cell-based. The settings on record: Homo sapiens, U-937, 72 h treatment. The protocol: Cell culture. U-937 cells were grown in an incubator equilibrated at 37° C. with 5% CO2, grown to confluence and split with Trypsin/EDTA (Gibco, […]01) once or twice a week according to confluence. U-937 (ATCC, HTB-132) were cultured in RPMI 1640 GLUTAMAX (ThermoFisher Scientific, 61870044) supplemented with 10% Fetal Bovine Serum (FBS, Gibco, 10270-106) and Penicillin-Streptomycin mixture (BioWhittaker/Lonza, DE17-602E). […] Peripheral blood samples were collected from distinct healthy donors (Etablissement Français du Sang). Pan monocytes were isolated by negative magnetic sorting using microbeads according to the manufacturer's instructions (Miltenyi Biotec, 130-096-537), and cultured in RPMI 1640 supplemented with glutamine (Thermo Fisher Scientific, 61870010), 10% fetal bovine serum and exposed to granulocyte-macrophage colony-stimulating factor (GM-CSF, Miltenyi Biotec, 130-093-866, 100 ng/mL) to induce differentiation into macrophages (MDM). […] Cell viability assay (IC50). Cell viability assay was carried out by plating 1000 cells/well in 96-well plates. Cells were treated for 72 h in a range between to 25 nM and […] using serial dilutions. The inventors followed the manufacturer's protocol. In brief, CellTiter-Blue® reagent (G8081, Promega) was added after 72 h treatment and cells were incubated for 3 h before recording fluorescence intensities (λex. 560/20 nm; λem. 590/10 nm) using a Perkin Elmer Wallac 1420 Victor2 Microplate Reader.
Background: Alamar Blue is a resazurin reagent that responds to reducing activity.

The test system of assay [1] is activated macrophages (act. MDM), CD86 activation marker. Briefly: CD86 macrophage activation marker by flow cytometry in LPS/IFNγ-activated monocyte-derived macrophages (Example 4). The settings on record: LCCs at 10 μM, 24 h co-treatment; several values per compound. The class given is cell-based, human. As to the method: Cell culture. U-937 cells were grown in an incubator equilibrated at 37° C. with 5% CO2, grown to confluence and split with Trypsin/EDTA (Gibco, […]01) once or twice a week according to confluence. U-937 (ATCC, HTB-132) were cultured in RPMI 1640 GLUTAMAX (ThermoFisher Scientific, 61870044) supplemented with 10% Fetal Bovine Serum (FBS, Gibco, 10270-106) and Penicillin-Streptomycin mixture (BioWhittaker/Lonza, DE17-602E). […] Peripheral blood samples were collected from distinct healthy donors (Etablissement Français du Sang). Pan monocytes were isolated by negative magnetic sorting using microbeads according to the manufacturer's instructions (Miltenyi Biotec, 130-096-537), and cultured in RPMI 1640 supplemented with glutamine (Thermo Fisher Scientific, 61870010), 10% fetal bovine serum and exposed to granulocyte-macrophage colony-stimulating factor (GM-CSF, Miltenyi Biotec, 130-093-866, 100 ng/mL) to induce differentiation into macrophages (MDM). […] Flow cytometry. Cells were washed with ice-cold 1×PBS, incubated with Fc block (Human TruStain FcX, Biolegend, 422302, 1/20) for 15 min, incubated with antibodies for 20 min at 4° C. and washed before analysis using a BD LSRFortessa X-20. Macrophages were analyzed with an antibody panel consisting of antibodies against the following cell surface proteins: CD44, CD80, CD86 and TfR1. The data were analyzed with FlowJo software v. 10.0.00003. […]
Background: A flow cytometer gives signals particle by particle.

In another assay the test system is HMLER CD44^high/CD24^low. The experiment in a line: Cell viability assay (CellTiter-Blue) on breast cancer stem cell model HMLER CD44high/CD24low. The settings on record: for IC50: Homo sapiens, cell viability, 72 h treatment, read-out: IC50 against HMLER CD44^high/CD24^low. Type of assay: cell-based, human. As to the method: Cell viability assay (IC50). Cell viability assay was carried out by plating 1000 cells/well in 96-well plates. Cells were treated for 72 h in a range between to 25 nM and […] using serial dilutions. The inventors followed the manufacturer's protocol. In brief, CellTiter-Blue® reagent (G8081, Promega) was added after 72 h treatment and cells were incubated for 3 h before recording fluorescence intensities (λex. 560/20 nm; λem. 590/10 nm) using a Perkin Elmer Wallac 1420 Victor2 Microplate Reader.
Cell culture. MCF7 (ATCC) cells, DU-145 (ATCC) cells and FC1245 cells were cultured in Dulbecco's Modified Eagle Medium GlutaMAX (DMEM, ThermoFisher Scientific, 61965059) supplemented with 10% Fetal Bovine Serum (FBS, Gibco, 10270-106) and Penicillin-Streptomycin mixture (BioWhittaker/Lonza, DE17-602E) unless stated otherwise. Primary lung circulating tumor cells (Celprogen, 36107-34CTC, Lot 219411) were grown using stem cell complete media (Celprogen, M36102-29PS) until the third passage. Circulating cancer cells were grown in stem cell ECM T75-flasks (Celprogen, E36102-29-T75) and ECM 6-well plates (Celprogen, E36102-29-6Well). HMLER cells ([…]) naturally repressing E-cadherin, obtained from human mammary epithelial cells infected with a retrovirus carrying hTERT, SV40 and the oncogenic allele H-rasV12, and HMLER CD44 and TFRC ko clones were cultured in DMEM/F12 (Thermo Fisher Scientific, 31331093) supplemented with 10% FBS (Thermo Fisher Scientific, 10270106), 10 μg/mL insulin (Sigma-Aldrich, 10516), 0.5 μg/mL hydrocortisone (Sigma-Aldrich, H0888) and 0.5 μg/mL puromycin (Life Technologies, A11138-02), unless stated otherwise. HMLER CD44^high cells were also supplemented with 10 ng/mL EGF (Miltenyi Biotech, 130-097-750).

`CC(C)(S)[C@@H](N)C(=O)O` [D-Pen]: in the assay on macrophage activation, the “efficacy on macrophage activation” value is given as “lack of efficacy”.

The compound `CN(CCCCCCCCCCCCN(C)C(=N)NC(=N)N)C(=N)NC(=N)N` [LCC-12Me] gave an IC50 with U937 cells of 6 µM.

Turning to `CCNC(=N)NC(=N)NCCCCCCCCCCNC(=N)NC(=N)NCC` [LCC-10,2], the IC50 in the assay with U937 cells was 1 µM.

On to `CCCNC(=N)NC(=N)NCCCCCCCCNC(=N)NC(=N)NCCC` [LCC-8,3], for which, in the assay with U937 cells, the IC50 came out at 2 µM.

Take `CCCNC(=N)NC(=N)NCCCCCCCCCCNC(=N)NC(=N)NCCC` [LCC-10,3]: the “Effect on CD86 macrophage activation marker (Flow cytometry) (% of activation marker compared to its level in activated macrophages)” value in assay [1] was 22%. This compound gave an IC50 in the assay with U937 cells of 0.6 µM.

Consider `CN(C)C(=N)NC(=N)N` [Metformin, 1,1-dimethylbiguanid hydrochloride, reference compound], for which the results for the IC50 in the assay with U937 cells and in the assay with HMLER CD44^high/CD24^low were 10000 µM and 22600 µM, respectively.

In the assay with U937 cells, `N=C1NCCCCCCCCCCNC(=N)NC(=N)NCCCCCCCCCCNC(=N)N1` [Coronaformin-10,10] registered an IC50 of 1 µM.

For `N=C(N)NC(=N)NCCCCCCCCCCNC(=N)NC(=N)N` [LCC-10], the IC50 stood at 20 µM in the assay on U937 cells and 58 µM in the assay with HMLER CD44^high/CD24^low. For the same compound, in the assay with HMLER CD44^high/CD24^low (HMLER CD44high/CD24low), the “improved IC50 compared with metformin” value is “about 400 fold”.

In the assay on U937 cells, `N=C1NCCCCCCCCNC(=N)NC(=N)NCCCCCCCCNC(=N)N1` [Coronaformin-8,8] had an IC50 of 3 µM.

For `[NH4+].[NH4+].[SH-].[SH-].[S]=[Mo]=[S]` [ATTM], in the assay with macrophage activation, the “efficacy on macrophage activation” value is recorded as “lack of efficacy”.

Turning to `CN(CCCCCCCCN(C)C(=N)NC(=N)N)C(=N)NC(=N)N` [LCC-8Me], in assay [1], the “Effect on CD86 macrophage activation marker (Flow cytometry) (% of activation marker compared to its level in activated macrophages)” value is listed as 89%. In the assay with U937 cells, this compound displayed an IC50 of 150 µM.

As to `N=C1NCCCCCCCCCCCCNC(=N)NC(=N)NCCCCCCCCCCCCNC(=N)N1` [Coronaformin-12,12], in the assay on U937 cells, the IC50 came to 0.5 µM.
